The NIST ThermoML archive (doi:10.1016/j.jct.2018.12.013)
± gives the expanded uncertainty stated by the source.

Settings: Liquid, Gas chromatography

C=CC(=C)CCC=C(C)C [2-methyl-6-methylene-2,7-octadiene]
Settings | vapor or sublimation pressure [kPa]
287.7 K | 0.1 ± 0.01
297.15 K | 0.21 ± 0.021
298.15 K | 0.22 ± 0.043
313.2 K | 0.57 ± 0.13
320.4 K | 0.87 ± 0.17
323.2 K | 1 ± 0.21
328.2 K | 1.3 ± 0.22
330 K | 1.5 ± 0.23
333.3 K | 1.8 ± 0.42
338.2 K | 2.3 ± 0.43
340.2 K | 2.5 ± 0.44
343.5 K | 2.9 ± 0.45
348.2 K | 3.7 ± 0.66
353.2 K | 4.6 ± 0.68
353.4 K | 4.6 ± 0.68
355.8 K | 5.2 ± 0.7
358.2 K | 5.7 ± 0.9
360 K | 6.2 ± 0.91
363.3 K | 7.1 ± 0.94
365.8 K | 7.9 ± 0.98
366.2 K | 8 ± 0.98
370 K | 9.4 ± 1.2
371.9 K | 10 ± 1.2
379.2 K | 13 ± 1.5
385 K | 17 ± 1.8
390 K | 20 ± 2.1
399.2 K | 27 ± 2.9
410 K | 38 ± 4.3
418.2 K | 49 ± 6.1
421.5 K | 54 ± 5.4
428.2 K | 65 ± 6.5
433.5 K | 76 ± 7.6
439.1 K | 90 ± 9
444.7 K | 101 ± 10

CC1(C)C2=CCCC(C)(C)[C@]23CC[C@H]1C3 [(-)-isolongifolene]
Settings | vapor or sublimation pressure [kPa]
298.15 K | 0.0043 ± 0.0026
310 K | 0.011 ± 0.006
320 K | 0.023 ± 0.013
330 K | 0.046 ± 0.024
340 K | 0.086 ± 0.042
350 K | 0.16 ± 0.071
360 K | 0.27 ± 0.11
370 K | 0.46 ± 0.16
378.2 K | 0.69 ± 0.21
380.2 K | 0.76 ± 0.23
386.2 K | 1 ± 0.27
388.2 K | 1.1 ± 0.29
392.2 K | 1.3 ± 0.31
393.2 K | 1.4 ± 0.34
395 K | 1.5 ± 0.34
400 K | 1.8 ± 0.38
410 K | 2.8 ± 0.5
419.2 K | 4 ± 0.63
424.2 K | 4.8 ± 0.71
430 K | 6 ± 0.84
440 K | 8.5 ± 1.1
450 K | 11.8 ± 1.5
460 K | 16 ± 1.6
470 K | 22 ± 2.2
480 K | 29 ± 2.9
490 K | 38 ± 3.8
500 K | 50 ± 5
510 K | 63.88 ± 6.4
520 K | 81 ± 8.1
527 K | 95.41 ± 9.5
528.2 K | 100 ± 10
529.6 K | 101 ± 10
